Patent US9988361B2, “Anti-enterovirus 71 thiadiazolidine derivative” (JIANGSU KANION PHARMACEUTICAL CO. LTD, priority 2014, dated 2018)
Like-named read-outs stand apart in the source and are kept apart here.

Test system: EV71 virus strain Shenzhen/120F1/09
Assay: EV71 in-vitro cytopathic effect (CPE) test
Assay type: cell-based, RD cells of human rhabdomyoma
Conditions: RD cells, EV71 100 TCID50, 3 days, CCK8 readout, read-out: EC50 by EC71 CPE test, EV71
Procedure: Test of EV71 In-Vitro Cytopathic Effect (CPE) To test the in-vitro antiviral activity and cytotoxicity of a compound to HFMD virus EV71 by means of cytopathic effect (CPE) test. […] Cell line: RD cells of human rhabdomyoma • 3. Cell culture media: DMEM medium added with 10% serum, Penicillin/Streptomycin and L-[…]×) • 4. […] Cell inoculation: digest off the RD cells from the attached state, then dilute them with culture medium to a density of 80000/ml and inoculate 100 μl into the micro wells the 96-well plate. • 2. Dilution of compound: • Step 1: prepare the dry powder of a compound to test into a 10 mM solution in DMSO. Then dilute the compound by three times to eight concentration points. Dilute the reference compounds with the same method. • Step 2: further dilute the diluted solution of the compound in DMSO with cell culture medium. Add 10 μl DMSO solution for each well into 240 μl culture medium. • 3. Add the diluted compound solution by 50 μl each well into the 96-well plate inoculated with cells (double holes, final concentration of DMSO is 1%). • 4. Dilution of virus: dilute EV71 virus solution by 10000 times to a concentration of 100 TCID50/50 μl/. Add the diluted virus solution by 50 μl each well into the 96-well plate. Prepare another 96-well plate to replace the virus with culture medium and similarly inoculate the cells. Add the compound to test the toxicity of compound on cells. • 5. Cultivate the 96-well plate 3 days at the conditions of 37° C. and 5% CO2. • 6. EC50 and CC50 tests: add the cellular activity test reagent CCK8 into the micro-wells by 20 μl/well. Use ELIASA to read the absorbancy at the wavelength of 450 nm and 630 nm. • 7.

Row | Molecule | EC50 (Enterovirus A, 72 h) [nM] | EC50 [nM]
1 | CCO/N=C/c1ccc(OCCCCCN2CCN(c3ccnc(N(C)C)c3)S2(=O)=O)cc1 [Embodiment 43, (E)-4-((5-(5-(2-(dimethylamino)-pyridin-4-yl)-1,1-dioxide-1,2,5-thiadiazolidine-2-yl)-pentyl)-oxy)-benzaldehyde-O-ethyl ketoxime] | 100 to 500 | –
2 | CCO/N=C/c1ccc(OCCCCCN2CCN(c3ccc(C#N)cc3)S2(=O)=O)cc1 [Embodiment 44] | 50 to 100 | –
3 | CCO/N=C1\CCc2cc(OCCCCCN3CCN(c4ccsc4)S3(=O)=O)ccc21 [Embodiment 46, (E)-2-(5-((1-(ethoxy-imino)-2,3-dihydro-1H-inden-5-yl)-oxy)-pentyl)-5-(thiophen-3-yl)-1,2,5-thiadiazolidine-1,1-dioxide] | 100 to 500 | –
4 | CCO/N=C1\CCc2cc(OCCCCCN3CCN(c4ccc(N)nc4)S3(=O)=O)ccc21 [Embodiment 47] | 500 to 1000 | –
5 | CCO/N=C1\CCc2cc(OCCCCCN3CCN(c4ccnc(N)c4F)S3(=O)=O)ccc21 [Embodiment 48, (E)-2-(2-amino-3-fluoropyridin-4-yl)-5-(5-((1-(ethoxy-imino)-2,3-dihydro-1H-indene-5-yl)-oxy)-pentyl)-1,2,5-thiadiazolidine-1,1-dioxide] | 100 to 500 | –
6 | CCO/N=C1\CCc2cc(OCCCCCN3CCN(c4cc(N)ncc4F)S3(=O)=O)ccc21 [Embodiment 49, (E)-2-(2-amino-5-fluoro-pyridin-4-yl)-5-(5-((1-(ethoxy-imino)-2,3-dihydro-1H-indene-5-yl)-oxy)-pentyl)-1,2,5-thiadiazolidine-1,1-dioxide] | 100 to 500 | –
7 | CCO/N=C1\CCc2cc(OCCCCCN3CCN(c4ccnc(NC)c4)S3(=O)=O)ccc21 [Embodiment 50, (E)-2-(5-((1-(ethoxy-imino)-2,3-dihydro-1H-inden-5-yl)-oxy)-pentyl)-5-(2-(methylamino)-pyridin-4-yl)-1,2-thiadiazolidine-1,1-dioxide] | < 50 | –
8 | CCO/N=C1\CCc2cc(OCCCCCN3CCN(c4ccnc(NCCO)c4)S3(=O)=O)ccc21 [Embodiment 51, (E)-2-(5-((1-(ethoxy-imino)-2,3-dihydro-1H-inden-5-yl)-oxy)-pentyl)-5-(2-((2-hydroxyethyl)-amino)-pyridin-4-yl)-1,2,5-thiadiazolidine-1,1-dioxide] | < 50 | –
9 | Nc1cc(N2CCN(CCCCCOc3ccc(/C=N/OCC4CC4)cc3)S2(=O)=O)ccn1 [Embodiment 52] | < 50 | –
10 | CC(C)O/N=C/c1ccc(OCCCCCN2CCN(c3ccnc(N)c3)S2(=O)=O)cc1 [Embodiment 53, (E)-4-((5-(5-(2-amino-pyridin-4-yl)-1,1-dioxide-1,2,5-thiadiazolidine-2-yl)-pentyl)-oxy)-benzaldehyde-O-isopropyl oxime] | < 50 | –
11 | CCO/N=C(\CC)c1ccc(OCCCCCN2CCN(c3ccnc(N)c3)S2(=O)=O)cc1 [Embodiment 54, (E)-2-(2-amino-pyridin-4-yl)-5-(5-(4-(1-(ethoxyimino)-propyl)-phenoxy)-pentyl)-1,2,5-thiadiazolidine-1,1-dioxide] | 500 to 1000 | –
12 | CCO/N=C/c1ccc(OCCOCCN2CCN(c3ccnc(N)c3)S2(=O)=O)cc1 [Embodiment 55] | 100 to 500 | –
13 | CCO/N=C/c1ccc(OCCCCCN2CCN(c3ccnc(N)c3)S2(=O)=O)cn1 [Embodiment 56, (E)-5-((5-(5-(2-amino-pyridin-4-yl)-1,1-dioxide-1,2,5-thiadiazolidine-2-yl)-pentyl)-oxy)-picolinaldehyde-O-ethyl ketoxime] | 50 to 100 | –
14 | CC(C)O/N=C1\CCc2cc(OCCCCCN3CCN(c4ccnc(N)c4)S3(=O)=O)ccc21 [Embodiment 58] | < 50 | –
15 | CCO/N=C1\CCc2cc(OCCCCCN3CCN(c4ccnc(N)c4)S3(=O)=O)cc(F)c21 [Embodiment 59] | < 50 | –
16 | CC(C)n1nnc(-c2ccc(OCCCCCN3CCN(c4ccnc(N)c4)S3(=O)=O)cc2)n1 [Embodiment 60] | < 50 | –

Row | Molecule | EC50 (Enterovirus A, 72 h) [nM] | EC50 [nM]
17 | Cn1nnc(-c2ccc(OCCCCCN3CCN(c4ccnc(N)c4)S3(=O)=O)cc2)n1 [Embodiment 61, 2-(2-amino-pyridin-4-yl)-5-(5-(4-(2-methyl-2H-tetrazol-5-yl)-phenoxy)-pentyl)-1,2,5-thiadiazolidine-1,1-dioxide] | < 50 | –
18 | CCc1noc2cc(OCCCCCN3CCN(c4ccnc(N)c4)S3(=O)=O)ccc12 [Embodiment 62, 2-(2-amino-pyridin-4-yl)-5-(5-((3-ethyl-benzo[d]isoxazol-6-yl)-oxy)-pentyl)-1,2,5-thiadiazolidine-1,1-dioxide] | 100 to 500 | –
19 | CCc1nnc(-c2ccc(OCCCCCN3CCN(c4ccnc(N)c4)S3(=O)=O)cc2)o1 [Embodiment 63, 4-(5-(5-(4-(5-ethyl-1,3,4-oxadiazol-2-yl)-phenoxy)-pentyl)-1,1-dioxo-1,2,5-thiadiazolidine-2-yl)-pyridin-2-amine] | 100 to 500 | –
20 | CCn1ncc(-c2ccc(OCCCCCN3CCN(c4ccnc(N)c4)S3(=O)=O)cc2)n1 [Embodiment 64, 2-(2-amino-pyridin-4-yl)-5-(5-(4-(2-ethyl-2H-1,2,3-triazol-4-yl)-phenoxy)-pentyl)-1,2,5-thiadiazolidine-1,1-dioxide] | < 50 | –
21 | CCO/N=C1\CCCc2cc(OCCCCCN3CCN(c4ccnc(N)c4)S3(=O)=O)ccc21 [Embodiment 65] | 100 to 500 | –
22 | CCCc1nc2ccc(OCCCCCN3CCN(c4ccnc(N)c4)S3(=O)=O)cc2o1 [Embodiment 66, 2-(2-amino-pyridin-4-yl)-5-(5-((2-propyl-benzo[d]oxazole-6-yl)-oxy)-pentyl)-1,2,5-thiadiazolidine-1,1-dioxide] | 50 to 100 | –
23 | CCc1cc(-c2ccc(OCCCCCN3CCN(c4ccnc(N)c4)S3(=O)=O)cc2)no1 [Embodiment 67, 2-(2-amino-pyridin-4-yl)-5-(5-(4-(5-ethylisoxazole-3-yl)-phenoxy)-pentyl)-1,2,5-thiadiazolidine-1,1-dioxide] | < 50 | –
24 | Nc1cc(N2CCN(CCCCCOc3ccc(-c4noc(C(F)(F)F)n4)cc3)S2(=O)=O)ccn1 [Embodiment 68, 2-(2-amino-pyridin-4-yl)-5-(5-(4-(5 (trifluoromethyl)-1,2,4-oxadiazol-3-yl)-phenoxy)-pentyl)-1,2,5-thiadiazolidine-1,1-dioxide] | 500 to 1000 | –
25 | Cc1nc(-c2ccc(OCCCCCN3CCN(c4ccnc(N)c4)S3(=O)=O)cc2)no1 [Embodiment 69] | < 50 | –
26 | CCO/N=C1\CCc2cc(OCCCCCN3CCN(c4ccnnc4)S3(=O)=O)ccc21 [Embodiment 70] | 100 to 500 | –
27 | CCOc1noc2cc(OCCC(O)CCN3CCN(c4ccncc4)S3(=O)=O)ccc12 (centres unmarked) [Embodiment 71, 2-(5-((3-ethoxy-benzo[d]isoxazole-6-yl)-oxy)-3-hydroxy-pentyl)-5-(pyridin-4-yl)-1,2,5-thiadiazolidine-1,1-dioxide] | 100 to 500 | –
28 | CCOc1noc2cc(OCCC(F)CCN3CCN(c4ccncc4)S3(=O)=O)ccc12 (centres unmarked) [Embodiment 72, 2-(5-((3-ethoxy-benzo[d]isoxazole-6-yl)-oxy)-3-fluoro-pentyl)-5-(pyridin-4-yl)-1,2,5-thiadiazolidine-1,1-dioxide] | 50 to 100 | –
29 | CCn1nnc(-c2ccc(OCCC3(CCN4CCN(c5ccnc(N)c5)S4(=O)=O)CC3)cc2)n1 [Embodiment 73, 2-(2-amino-pyridin-4-yl)-5-(2-(1-(2-(4-(2-ethyl-2H-tetrazol-5-yl)-phenoxy)-ethyl)-cyclic propyl)-ethyl)-1,2,5-thiadiazolidine-1,1-dioxide] | < 50 | –
30 | CCn1nnc(-c2ccc(OCCCCCN3CCN(c4ccnc(N)c4)S3(=O)=O)nc2)n1 [Embodiment 74, 4-(5-(5-((5-(2-ethyl-tetrazol-5-yl)-2-pyridinyl)-oxy)-pentyl)-1,1-dioxo-1,2,5-thiadiazolidine-2-yl)-pyridin-2-amine] | < 50 | –
31 | CCn1nnc(-c2ccc(OCCC(C)(C)CCN3CCN(c4ccnc(N)c4)S3(=O)=O)cc2)n1 [Embodiment 76, 4-(5-(5-(4-(2-ethyl-tetrazol-5-yl)-phenoxy)-3,3-dimethyl-pentyl)-1,1-dioxo-1,2,5-thiadiazolidine-2-yl)-pyridin-2-amine] | < 50 | –
32 | (S,E)-2-(2-aminopyridin-4-yl)-5-(5-((1-(ethoxy-imino)-2,3-dihydro-1H-inden-5-yl)-oxy)-3-methylpentyl)-1,2,5-thiadiazolidine-1,1-dioxide and (R,E)-2-(2-aminopyridin-4-yl)-5-(5-((1-(ethoxy-imino)-2,3-dihydro-1H-inden-5-yl)-oxy)-3-methylpentyl)-1,2,5-thiadiazolidine-1,1-dioxide [Embodiment 29] | – | < 50
